Reference: PubChem BioAssay (NCI)
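48-hour exposure; five concentrations; linearly interpolated endpoints. The concentration for 50% growth inhibition is given as GI50. TGI: concentration producing complete growth inhibition.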

What was measured:
Experiment in all cases: NCI-60 cell line screen, 48 h
[1] = system: 786-0 renal
[2] = system: A498 renal
[3] = system: A549 NSCLC
[4] = system: ACHN renal
[5] = system: BT-549 breast
[6] = system: CAKI-1 renal
[7] = system: CCRF-CEM leukemia
[8] = system: COLO 205 colon
[9] = system: DU-145 prostate
[10] = system: EKVX NSCLC
[11] = system: HCC-2998 colon
[12] = system: HCT-116 colon
[13] = system: HCT-15 colon
[14] = system: HL-60(TB) leukemia
[15] = system: HOP-62 NSCLC
[16] = system: HOP-92 NSCLC
[17] = system: HS 578T breast
[18] = system: HT29 colon
[19] = system: IGROV1 ovarian
[20] = system: K-562 leukemia
[21] = system: KM12 colon
[22] = system: LOX IMVI melanoma
[23] = system: M14 melanoma
[24] = system: MALME-3M melanoma
[25] = system: MCF7 breast
[26] = system: MDA-MB-231 breast
[27] = system: MDA-MB-435
[28] = system: MDA-MB-468 breast
[29] = system: MOLT-4 leukemia
[30] = system: NCI-H226 lung
[31] = system: NCI-H23 lung
[32] = system: NCI-H460 lung
[33] = system: NCI-H522 lung
[34] = system: NCI/ADR-RES ovarian
[35] = system: OVCAR-3 ovarian
[36] = system: OVCAR-4 ovarian
[37] = system: OVCAR-5 ovarian
[38] = system: OVCAR-8 ovarian
[39] = system: PC-3 prostate
[40] = system: RPMI-8226 leukemia
[41] = system: RXF 393 renal
[42] = system: SF-268 CNS
[43] = system: SF-295 CNS
[44] = system: SF-539 CNS
[45] = system: SK-MEL-2 melanoma
[46] = system: SK-MEL-28 melanoma
[47] = system: SK-MEL-5 melanoma
[48] = system: SK-OV-3 ovarian
[49] = system: SN12C renal
[50] = system: SNB-19 CNS
[51] = system: SNB-75 CNS
[52] = system: SR leukemia
[53] = system: SW-620 colon
[54] = system: T-47D breast
[55] = system: TK-10 renal
[56] = system: U251 CNS
[57] = system: UACC-257 melanoma
[58] = system: UACC-62 melanoma
[59] = system: UO-31 renal

## COc1ccc2[nH]c(O)c(N=Nc3nc(-c4ccccc4)cs3)c2c1
[1]
  GI50: 1.96 µM
  TGI: 3.69 µM
[2]
  GI50: 2.67 µM
  TGI: 5.96 µM
[3]
  GI50: 2.76 µM
  TGI: 11.3 µM
[4]
  GI50: 2.89 µM
  TGI: 10.2 µM
[5]
  GI50: 4.43 µM
  TGI: 21.8 µM
[6]
  GI50: 3.85 µM
  TGI: 16.7 µM
[7]
  GI50: 6.48 µM
  TGI: > 100 µM
[8]
  GI50: 4.87 µM
  TGI: 29.5 µM
[9]
  GI50: 4.31 µM
  TGI: 17.5 µM
[10]
  GI50: 2.62 µM
  TGI: 20.2 µM
[11]
  GI50: 6.93 µM
  TGI: > 100 µM
[12]
  GI50: 2.26 µM
  TGI: 5.34 µM
[13]
  GI50: 3.26 µM
  TGI: 17.3 µM
[14]
  GI50: 41.1 µM
  TGI: > 100 µM
[15]
  GI50: 5.26 µM
  TGI: 30.3 µM
[16]
  GI50: 1.06 µM
  TGI: 4.14 µM
[17]
  GI50: 4.27 µM
  TGI: 42.9 µM
[18]
  GI50: 7.21 µM
  TGI: 41.1 µM
[19]
  GI50: 5.04 µM
  TGI: 31.9 µM
[20]
  GI50: 4.62 µM
  TGI: > 100 µM
[21]
  GI50: 5.55 µM
  TGI: > 100 µM
[22]
  GI50: 3.08 µM
  TGI: 10.5 µM
[23]
  GI50: 5.8 µM
  TGI: 46.7 µM
[24]
  GI50: 2.51 µM
  TGI: 13.1 µM
[25]
  GI50: 3.66 µM
  TGI: 42.5 µM
[26]
  GI50: 2.66 µM
  TGI: 12.7 µM
[27]
  GI50: 4.96 µM
  TGI: > 100 µM
[28]
  GI50: 1.71 µM
  TGI: 5.35 µM
[29]
  GI50: 7.27 µM
  TGI: > 100 µM
[30]
  GI50: 2.65 µM
  TGI: 13.4 µM
[31]
  GI50: 3.56 µM
  TGI: 19.5 µM
[32]
  GI50: 3.43 µM
  TGI: 14.8 µM
[33]
  GI50: 2.29 µM
  TGI: 9.63 µM
[34]
  GI50: 2.24 µM
  TGI: 5.15 µM
[35]
  GI50: 3.06 µM
  TGI: 12.5 µM
[36]
  GI50: 1.98 µM
  TGI: 5.07 µM
[37]
  GI50: 5.44 µM
  TGI: 36.7 µM
[38]
  GI50: 3.11 µM
  TGI: 10.5 µM
[39]
  GI50: 4.57 µM
  TGI: > 100 µM
[40]
  GI50: 14.4 µM
  TGI: > 100 µM
[41]
  GI50: 3.05 µM
  TGI: 8.74 µM
[42]
  GI50: 3.1 µM
  TGI: 11.8 µM
[43]
  GI50: 3.35 µM
  TGI: 12.6 µM
[44]
  GI50: 2.65 µM
  TGI: 8.49 µM
[45]
  GI50: 13.3 µM
  TGI: 59.4 µM
[46]
  GI50: 4.83 µM
  TGI: > 100 µM
[47]
  GI50: 11.5 µM
  TGI: 48.3 µM
[48]
  GI50: 3.52 µM
  TGI: 22.2 µM
[49]
  GI50: 2.5 µM
  TGI: 17.7 µM
[50]
  GI50: 3.09 µM
  TGI: 10.4 µM
[51]
  GI50: 2.64 µM
  TGI: 16.2 µM
[52]
  GI50: 4.55 µM
  TGI: > 100 µM
[53]
  GI50: 3.7 µM
  TGI: 16.6 µM
[54]
  GI50: 2.78 µM
  TGI: 15.8 µM
[55]
  GI50: 6.47 µM
  TGI: 16.5 µM
[56]
  GI50: 2.62 µM
  TGI: 6.97 µM
[57]
  GI50: 17.4 µM
  TGI: > 100 µM
[58]
  GI50: 2.54 µM
  TGI: 38.7 µM
[59]
  GI50: 1.38 µM
  TGI: 6.4 µM
